# Assays:
# DRB1*04 and *15 alleles = conditions: literature, Mycko et al. 2004; cited from earlier work
# PBMCs = assay: PBMC culture with candidate peptides for 14 days, IFN-γ and IL-5 in supernatant by ELISA; format: cell-based, human; conditions: for IFN-γ/IL-5 ratio (geometric mean): peptide 10 μg/mL
# Description: Measurement of antigen-specific T cell responses in the peripheral blood in humans differs depending on whether responses are high affinity interactions with foreign (viral) epitopes or lower affinity interactions involving recognition of self-antigens. […] Given that T cell responses directed against MAGE and IL-13Rα2 antigens also involve T cells with low affinity to these self-antigens, antigen-specific responses were quantified based on cytokine secretion, as recently described in a phase I study of patients with MS (Viglietta V, et al: Neurology 2008, 71(12):917-924). Cytokine production was quantified by ELISA, defining a positive T cell response for each patient as the amounts of IFN-γ or IL-5 that were >50 pg/mL and two standard deviations above the mean cytokine levels secreted after stimulation of cells from that patient with negative control MBP peptide.
# Twenty-five mL of blood from patients or healthy subjects was obtained under an IRB-approved protocol. All samples of blood from patients were taken at the time of surgery. […] All tumor-bearing patients received similar doses of steroids and anti-epileptic medications at the time of tumor debulking surgery prior to obtaining peripheral blood for these studies. T cell responses in patients with meningiomas controlled for influences of steroids on antigen responsiveness and cytokine balance. Tumor tissue was independently confirmed in all cases by formal pathological analysis. PBMCs were purified from heparinized blood by density gradient centrifugation using Ficoll-Hypaque (GE Healthcare Biosciences), and cells were then washed with PBS and viable cells quantified by trypan-blue staining.
# Freshly isolated PBMCs were plated at 2×10^5 cells/well in 200 μl of serum-free X-VIVO15 (X15) media (Lonza) in 96-well round-bottom cell culture plates. Candidate peptides, in addition to a negative control peptide derived from MBP were added at a concentration of 10 μg/mL and anti-CD3 mAb was added at a concentration of 1 μg/mL. Six T cell cultures were established for each condition in each subject, and 100 IU/ml of IL-2 was added on the following day. Plates were incubated at 37° C. and 5% CO2 for 14 days, with media changed as needed, and the supernatant was harvested to evaluate T cell responses (cytokines) induced by each condition using ELISA. In a limited number (n=3) of patients, cytokine production was assessed after both 7 and 14 days. […] An IFN-γ ELISPOT assay was performed as previously described (Lv H, Havari E, et al: J Clin Invest, 121(4):1561-1573).
# To detect T helper cell responses directed against the candidate peptides, IFN-γ and IL-5 were measured by ELISA using commercially available kits supplied by BD bioscience. IFN-γ was used as a prototypic Th1 cytokine and IL-5 was chosen as a prototypic cytokine released by Th2 cells because unlike IL-4 there would be no potential consumption by antigen-specific T cells in the culture conditions (Kourilsky P, Truffa-Bachi P: Trends Immunol 2001, 22(9):502-509).
sequence,measurement,setting,value
"ENPVVHFFKNIVTPR [MBP85-99, reference compound]",HLA class II alleles shown to bind (experimental data),DRB1*04 and *15 alleles,bind to both the DRB1*04 and *15 alleles
same,"mean cut-off for a positive cytokine response based on cytokine induced by control MBP peptide, IFN-γ",PBMCs; GBM patients,123 pg/mL
same,"mean cut-off for a positive cytokine response based on cytokine induced by control MBP peptide, IL-5",PBMCs; GBM patients,312 pg/mL
same,"mean cut-off for a positive cytokine response based on cytokine induced by control MBP peptide, IFN-γ",PBMCs; healthy subjects,895 pg/mL
LRKYRAKELVTKAEML [MAGE-A3121-136],positive wells among 6 primary T cell responses (IFN-γ or IL-5 ELISA),PBMCs; Healthy Subject 1,+++ (+++/++++ cell=3-4 positive wells)
same,positive wells among 6 primary T cell responses (IFN-γ or IL-5 ELISA),PBMCs; Healthy Subject 2,+ (+/++ cell=1-2 positive wells)
same,positive wells among 6 primary T cell responses (IFN-γ or IL-5 ELISA),PBMCs; Healthy Subject 3,+++ (+++/++++ cell=3-4 positive wells)
same,positive wells among 6 primary T cell responses (IFN-γ or IL-5 ELISA),PBMCs; Healthy Subject 4,+ (+/++ cell=1-2 positive wells)
same,positive wells among 6 primary T cell responses (IFN-γ or IL-5 ELISA),PBMCs; Healthy Subject 5,+ (+/++ cell=1-2 positive wells)
same,positive wells among 6 primary T cell responses (IFN-γ or IL-5 ELISA),PBMCs; Healthy Subject 6,+ (+/++ cell=1-2 positive wells)
same,positive wells among 6 primary T cell responses (IFN-γ or IL-5 ELISA),PBMCs; Meningioma 1,+ (+/++ cell=1-2 positive wells)
same,positive wells among 6 primary T cell responses (IFN-γ or IL-5 ELISA),PBMCs; Meningioma 2,+++ (+++/++++ cell=3-4 positive wells)
same,positive wells among 6 primary T cell responses (IFN-γ or IL-5 ELISA),PBMCs; Meningioma 6,+ (+/++ cell=1-2 positive wells)
same,positive wells among 6 primary T cell responses (IFN-γ or IL-5 ELISA),PBMCs; Primary GBM 1,++ (+/++ cell=1-2 positive wells)
same,positive wells among 6 primary T cell responses (IFN-γ or IL-5 ELISA),PBMCs; Primary GBM 2,++ (+/++ cell=1-2 positive wells)
same,positive wells among 6 primary T cell responses (IFN-γ or IL-5 ELISA),PBMCs; Primary GBM 3,++++ (+++/++++ cell=3-4 positive wells)
same,positive wells among 6 primary T cell responses (IFN-γ or IL-5 ELISA),PBMCs; Primary GBM 4,++ (+/++ cell=1-2 positive wells)
same,positive wells among 6 primary T cell responses (IFN-γ or IL-5 ELISA),PBMCs; Primary GBM 5,++++ (+++/++++ cell=3-4 positive wells)
same,positive wells among 6 primary T cell responses (IFN-γ or IL-5 ELISA),PBMCs; Primary GBM 6,++ (+/++ cell=1-2 positive wells)
same,positive wells among 6 primary T cell responses (IFN-γ or IL-5 ELISA),PBMCs; Primary GBM 7,++++ (+++/++++ cell=3-4 positive wells)
same,positive wells among 6 primary T cell responses (IFN-γ or IL-5 ELISA),PBMCs; Primary GBM 8,++ (+/++ cell=1-2 positive wells)
same,positive wells among 6 primary T cell responses (IFN-γ or IL-5 ELISA),PBMCs; Recurrent GBM 1,++ (+/++ cell=1-2 positive wells)
same,positive wells among 6 primary T cell responses (IFN-γ or IL-5 ELISA),PBMCs; Recurrent GBM 3,+ (+/++ cell=1-2 positive wells)
same,positive wells among 6 primary T cell responses (IFN-γ or IL-5 ELISA),PBMCs; Recurrent GBM 4,+ (+/++ cell=1-2 positive wells)
same,positive wells among 6 primary T cell responses (IFN-γ or IL-5 ELISA),PBMCs; Recurrent GBM 5,+ (+/++ cell=1-2 positive wells)
same,IFN-γ/IL-5 ratio (geometric mean),PBMCs; healthy subjects,8.1
same,IFN-γ/IL-5 ratio (geometric mean),PBMCs; patients with primary GBMs,0.1
same,IFN-γ/IL-5 ratio (geometric mean),PBMCs; patients with recurrent GBMs,0.06
